Data on 1 molecule can be found in ChEMBL document CHEMBL1152184, “A micellar prodrug of paclitaxel conjugated to cyclotriphosphazene” (Bioorg Med Chem Lett, 2008).

The assay has as its system A-431. Description: Cytotoxicity against human A431 cells after 72 hrs by SRB method. It is filed as functional, cell-based. To be noted: A-431, 72 h. (The SRB assay estimates cell density from bound dye.)

Take `CC(=O)O[C@H]1C(=O)[C@@]2(C)[C@H]([C@H](OC(=O)c3ccccc3)[C@]3(O)C[C@H](OC(=O)[C@H](O)[C@@H](NC(=O)c4ccccc4)c4ccccc4)C(C)=C1C3(C)C)[C@]1(OC(C)=O)CO[C@@H]1C[C@@H]2O` [PACLITAXEL]: the IC50 – broadly, the concentration at which inhibition is half-maximal – amounted to 25.1 nM.
